Source: US20230123334A1, “AMINO LIPID COMPOUND, PREPARATION METHOD THEREFOR, AND APPLICATION THEREOF” (SHENZHEN SHENXIN BIOTECHNOLOGY CO., LTD., priority 2020, published 2023)

Test system: HEK293 cells
Test: Preliminary screening as DNA vectors, GFP transfection of HEK293 cells
Type: cell-based
Settings: amino lipid/DOPE liposome with 75 ng plasmid DNA (psin-EGFP-IRES-Puro); number of GFP-expressing cells divided by total nuclei (Hoechst)
Summary of the method: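 First, amino lipid and DOPE were vortexed in sodium acetate buffer (pH 5.6) to form liposomes. Next, these were held with 75 ng EGFP plasmid at room temperature for 30 min. Finally, HEK293 cells were added, cultured at 37° C., Hoechst-stained, and GFP+/total nuclei scored by imaging.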

SMILES | Absolute DNA transfection efficiency in HEK293 cells [%]
CCCCCCCCCCCCCCCCCCSc1nc(NCCCCCCCCCCCCC)nc(NCC2CCN(C)CC2)n1 [S18N13 D10] | 0.9
CCCCCCCCCCCCNc1nc(NCCCN(C)C)nc(SCCCCCCCCCCC)n1 [S11N12 D6] | 18.8
CCCCCCCCCCCCCCCCCCSc1nc(NCCN(C)C)nc(SCCCCCCC)n1 [S7S18 D1] | 3.7
CCCCCCCCCNc1nc(NCCN2CCCC2)nc(SCCCCCCCC)n1 [S8N9 D3] | 32.7
CCCCCCCCCCCCCCCNc1nc(NCCCN2CCN(C)CC2)nc(SCCCCCCC)n1 [S7N15 D9] | 17.6
CCCCCCCCCCCCCCCSc1nc(NCC2CCN(C)CC2)nc(N(CCCCCCCCCCCC)CCCCCCCCCCCC)n1 [S15^2N12 D10] | 1.0
CCCCCCCCCCCSc1nc(NCCCN(C)C)nc(SCCCCCC)n1 [S6S11 D6] | 32.1
CCCCCCCCCCCCCCSc1nc(NCCCCCCC)nc(NCCN(C)C)n1 [S14N7 D1] | 12.5
CCCCCCCCCCCCCCCNc1nc(NCCN2CCN(C)CC2)nc(SCCCCCCCCCCCCCCC)n1 [S15N15 D5] | 0.4
CCCCCCCSc1nc(NCCCCCC)nc(NCCCN2CCN(C)CC2)n1 [S7N6 D9] | 20.3
CCCCCCCCCCCSc1nc(NCC2CCN(C)CC2)nc(SCCCCCC)n1 [S6S11 D10] | 38.1
CCCCCCCCCCCCNc1nc(NCCN2CCCCC2)nc(SCCCCCCC)n1 [S7N12 D4] | 9.7
CCCCCCCCCCCCCCCCNc1nc(NCCCN2CCOCC2)nc(SCCCCCC)n1 [S6N16 D8] | 4.2
CCCCCCCCCCCCCCCCCCSc1nc(NCCCCCCCCCCCC)nc(NCCN2CCN(C)CC2)n1 [S18N12 D5] | 1.0
CCCCCCCCCCSc1nc(NCCCCCCC)nc(NCCCN2CCN(C)CC2)n1 [S10N7 D9] | 4.5
CCCCCCCCCCCCSc1nc(NCCN2CCCCC2)nc(N(CCCCCCCCCCCC)CCCCCCCCCCCC)n1 [S12^2N12 D4] | 0.0
CCCCCCCCCSc1nc(NCCCCCCC)nc(NCCN(C)C)n1 [S9N7 D1] | 36.0
CCCCCCCCCCCCCCCCNc1nc(NCCN2CCCCC2)nc(SCCCCCCCCCCCC)n1 [S12N16 D4] | 0.7
CCCCCCCCCCCCCCCCNc1nc(NCCN2CCN(C)CC2)nc(SCCCCCCCCCCCCCCCC)n1 [S16N16 D5] | 0.5
CCCCCCCCCCCSc1nc(NCCN2CCN(C)CC2)nc(SCCCCCCC)n1 [S7S11 D5] | 32.4
CCCCCCCCCCCCCCCCSc1nc(NCCCCCCC)nc(NCCN2CCOCC2)n1 [S16N7 D2] | 16.6
CCCCCCCCCCCCCCCCNc1nc(NCCN(CC)CC)nc(SCCCCCCC)n1 [S7N16 D7] | 6.4
CCCCCCCCCNc1nc(NCCN2CCCCC2)nc(SCCCCCCCCC)n1 [S9N9 D4] | 18.0
CCCCCCCCCCCCSc1nc(NCCN(CC)CC)nc(SCCCCCCCC)n1 [S8S12 D7] | 9.3
CCCCCCCCCCCCCCCNc1nc(NCCCN2CCOCC2)nc(SCCCCCCCCCCCCCCC)n1 [S15N15 D8] | 0.1
CCCCCCCCCCCCN(CCCCCCCCCCCC)c1nc(NCC2CCN(C)CC2)nc(SCCCCCC)n1 [S6^2N12 D10] | 0.0
CCCCCCCCCCCSc1nc(NCCN2CCN(C)CC2)nc(SCCCCCC)n1 [S6S11 D5] | 32.7

SMILES | Absolute DNA transfection efficiency in HEK293 cells [%]
CCCCCCCCCSc1nc(NCCCCCCC)nc(NCCN(CC)CC)n1 [S9N7 D7] | 15.2
CCCCCCCNc1nc(NCCN2CCCC2)nc(SCCCCCCC)n1 [S7N7 D3] | 9.2
CCCCCCCCCCCCCCCCCCNc1nc(NCCN2CCCCC2)nc(SCCCCCC)n1 [S6N18 D4] | 3.5
CCCCCCCNc1nc(NCCN2CCCCC2)nc(SCCCCCC)n1 [S6N7 D4] | 1.1
CCCCCCCCCCCCCCCCCCSc1nc(NCCCCCCC)nc(NCCN2CCN(C)CC2)n1 [S18N7 D5] | 28.2
CCCCCCCCCCCCCCCCCCSc1nc(NCCCCCCCCC)nc(NCCCN(C)C)n1 [S18N9 D6] | 19.5
CCCCCCCCCCCCN(CCCCCCCCCCCC)c1nc(NCCN2CCOCC2)nc(SCCCCCC)n1 [S6^2N12 D2] | 0.0
CCCCCCCCCCCCCNc1nc(NCCN(C)C)nc(SCCCCCCCC)n1 [S8N13 D1] | 18.3
CCCCCCCCCCCCCNc1nc(NCC2CCN(C)CC2)nc(SCCCCCCCC)n1 [S8N13 D10] | 18.7
CCCCCCCCCSc1nc(NCCCCCCCC)nc(NCCN2CCOCC2)n1 [S9N8 D2] | 13.9
CCCCCCCCCCCCNc1nc(NCCCN2CCN(C)CC2)nc(SCCCCCCCC)n1 [S8N12 D9] | 48.3
CCCCCCCCSc1nc(NCC2CCN(C)CC2)nc(SCCCCCCC)n1 [S7S8 D10] | 0.0
CCCCCCCCCCCCCCCNc1nc(NCCN2CCN(C)CC2)nc(SCCCCCCCCC)n1 [S9N15 D5] | 16.1
CCCCCCCCCCCCCCCCCCNc1nc(NCCN(CC)CC)nc(SCCCCCCCCCCCCCCC)n1 [S15N18 D7] | 0.9
CCCCCCCCCCCCNc1nc(NCCCN2CCOCC2)nc(SCCCCCC)n1 [S6N12 D8] | 4.0
CCCCCCCCCCCCCCCCCCNc1nc(NCCN2CCOCC2)nc(SCCCCCCCCCCCCCCCCCC)n1 [S18N18 D2] | 0.1
CCCCCCCCCCCCCCCCSc1nc(NCCN2CCCC2)nc(SCCCCCCC)n1 [S7S16 D3] | 6.3
CCCCCCCCCCCCCCCCCCNc1nc(NCCCN2CCOCC2)nc(SCCCCCCCCCCC)n1 [S11N18 D8] | 4.4
CCCCCCCCCNc1nc(NCCCN(C)C)nc(SCCCCCCCCC)n1 [S9N9 D6] | 60.6
CCCCCCCCCSc1nc(NCCN2CCOCC2)nc(SCCCCCCC)n1 [S7S9 D2] | 28.8
CCCCCCCCCCCCCCCCCCNc1nc(NCCN2CCCC2)nc(SCCCCCCCCCC)n1 [S10N18 D3] | 11.9
CCCCCCCCCCCNc1nc(NCCCN(C)C)nc(SCCCCCCCCCCC)n1 [S11N11 D6] | 22.8
CCCCCCCCCCCCCCSc1nc(NCCCN(C)C)nc(N(CCCCCCCCCCCC)CCCCCCCCCCCC)n1 [S14^2N12 D6] | 0.2
CCCCCCCCCCCCCCCCCCNc1nc(NCCN(C)C)nc(SCCCCCCCCCCCC)n1 [S12N18 D1] | 0.7
CCCCCCCCCNc1nc(NCCN2CCN(C)CC2)nc(SCCCCCC)n1 [S6N9 D5] | 7.9
CCCCCCCCCCCCN(CCCCCCCCCCCC)c1nc(NCCCN(C)C)nc(SCCCCCCCC)n1 [S8^2N12 D6] | 0.5
